Measurements as given in article PMC1361622 (2006).

Test system: construct 1 (consensus-type glmS ribozyme, A6 and A58) (RNA, ribozyme) GGUAAAUUAUAAAAGCGCCAGAACUACAGAAAUGUAGUUGACGAGGAGGAGGUUUAUCGAAUUUUCGGCGGAUGCCUCC
Assay: half-maximal kobs of ligand-dependent self-cleavage
Settings: 20 mM Mg2+; 50 mM Tris-HCl pH 7.5, 23 °C; GlcN6P varied

apparent Kd: ~ 200 µM
Compound: N[C@H]1C(O)O[C@H](COP(=O)(O)O)[C@@H](O)[C@@H]1O (stereo partly shown)
